Results published in patent US8519128B2, “Pyripyropene derivatives having an ACAT2-inhibiting activity” (The Kitasato Institute, priority 2007, dated 2013).
pIC50: −log10 of the molar value. Where two headings read alike, the source gives them in different places.

Target: T1, ACAT 2 (Mus musculus, UniProt O88908)
T1 construct: The source of ACAT 2 enzyme used was a membrane fraction derived from mouse liver microsome; from tissue; host or cells: mouse liver (microsome fraction)
T1 sequence (O88908 1-525): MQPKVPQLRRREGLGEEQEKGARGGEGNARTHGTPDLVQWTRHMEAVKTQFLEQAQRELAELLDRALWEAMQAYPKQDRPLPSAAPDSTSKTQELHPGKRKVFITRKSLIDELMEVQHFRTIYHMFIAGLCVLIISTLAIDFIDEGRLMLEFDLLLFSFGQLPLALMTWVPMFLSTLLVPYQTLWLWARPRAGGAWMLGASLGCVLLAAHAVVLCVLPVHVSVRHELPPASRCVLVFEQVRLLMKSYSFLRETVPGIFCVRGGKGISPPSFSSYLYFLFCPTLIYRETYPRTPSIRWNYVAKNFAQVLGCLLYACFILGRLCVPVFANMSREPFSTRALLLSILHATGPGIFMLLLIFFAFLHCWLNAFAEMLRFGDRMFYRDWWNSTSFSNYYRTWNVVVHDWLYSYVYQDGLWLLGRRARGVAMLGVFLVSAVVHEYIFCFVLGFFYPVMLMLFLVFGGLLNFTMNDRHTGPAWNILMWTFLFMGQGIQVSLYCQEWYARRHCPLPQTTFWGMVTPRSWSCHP
Assay: ACAT-inhibiting activity, mouse liver microsome membrane fraction, [14C]oleoyl-CoA
Format: biochemical
Experimental: The source of ACAT 2 enzyme used was a membrane fraction derived from mouse liver microsome. Mouse liver was homogenized in buffer solution A (50 mM Tris-HCl (pH 7.8), 1 mM ethylenediamine tetraacetate, and 1 mM phenylmethanesulfonyl fluoride) using a homogenizer of the Potter type (Tokyo-RIKO). The homogenate was centrifuged at 12000×g, and the supernatant was ultracentrifuged at 100000×g. The sediment was taken as a microsome fraction, and this fraction was adjusted to have a protein concentration of 5 mg/ml using buffer solution A.
The chloroform layer was evaporated to dryness and was used to spot a thin layer chromatography plate (silica gel plate, Merck, 0.5 mm thickness). Elution for separation was carried out using a solvent of hexane/diethyl ether/acetic acid (70:30:1, v/v).

[1] = mouse liver microsome, 5 minutes at 37° C.

For “7-O-o,m,p-trifluorobenzoyl-7-deacetylpyripyropene A [PRD 110]”, the pIC50 (read-out: Inhibitory activity: Concentration required for 50% inhibition of ACAT 2, mouse liver microsome, 5 minutes at 37° C.) was greater than 8.00 and the “Specific activity: (inhibitory activity of test compound)/(inhibitory activity of pyripyropene A)” value (relative to pyripyropene A) was “+++ (50 > specific activity > 10)”.
COc1ccccc1C(=O)O[C@H]1CC2C(C)(COC(C)=O)[C@@H](OC(C)=O)CC[C@]2(C)C2[C@@H](O)c3c(cc(-c4cccnc4)oc3=O)O[C@@]21C (some centres unmarked) [PRD 001, 7-o-methoxybenzoyl-7-deacetylpyripyropene A] was tested, and the pIC50 [1] was 7.00 to 8.00 and the “Specific activity: (inhibitory activity of test compound)/(inhibitory activity of pyripyropene A)” value (relative to pyripyropene A) was “+ (5 > specific activity > 1)”.
COc1cccc(C(=O)O[C@H]2CC3C(C)(COC(C)=O)[C@@H](OC(C)=O)CC[C@]3(C)C3[C@@H](O)c4c(cc(-c5cccnc5)oc4=O)O[C@@]32C)c1 (some centres unmarked) [PRD 002, 7-m-methoxybenzoyl-7-deacetylpyripyropene A] was tested, and the pIC50 [1] was 7.00 to 8.00 and the “Specific activity: (inhibitory activity of test compound)/(inhibitory activity of pyripyropene A)” value (relative to pyripyropene A) was “+++ (50 > specific activity > 10)”.
For COc1ccc(C(=O)O[C@H]2CC3C(C)(COC(C)=O)[C@@H](OC(C)=O)CC[C@]3(C)C3[C@@H](O)c4c(cc(-c5cccnc5)oc4=O)O[C@@]32C)cc1 (some centres unmarked) [PRD 003, 7-p-methoxybenzoyl-7-deacetylpyripyropene A], the pIC50 [1] was greater than 8.00 and the “Specific activity: (inhibitory activity of test compound)/(inhibitory activity of pyripyropene A)” value (relative to pyripyropene A) was “+++ (50 > specific activity > 10)”.
In the case of CC(=O)OCC1(C)C(OC(C)=O)CCC2(C)C1CC(OC(=O)c1ccccc1I)C1(C)Oc3cc(-c4cccnc4)oc(=O)c3C(O)C21 (centres unmarked) [PRD 004, 7-o-iodobenzoyl-7-deacetylpyripyropene A], the “Specific activity: (inhibitory activity of test compound)/(inhibitory activity of pyripyropene A)” value (relative to pyripyropene A) was “+++ (50 > specific activity > 10)”.
With CC(=O)OCC1(C)C2C[C@H](OC(=O)c3cccc(I)c3)[C@@]3(C)Oc4cc(-c5cccnc5)oc(=O)c4[C@H](O)C3[C@@]2(C)CC[C@@H]1OC(C)=O (some centres unmarked) [PRD 005, 7-m-iodobenzoyl-7-deacetylpyripyropene A] the pIC50 [1] was 7.00 to 8.00 and the “Specific activity: (inhibitory activity of test compound)/(inhibitory activity of pyripyropene A)” value (relative to pyripyropene A) was “+++ (50 > specific activity > 10)”.
CC(=O)OCC1(C)C2C[C@H](OC(=O)c3ccc(I)cc3)[C@@]3(C)Oc4cc(-c5cccnc5)oc(=O)c4[C@H](O)C3[C@@]2(C)CC[C@@H]1OC(C)=O (some centres unmarked) [PRD 006, 7-p-iodobenzoyl-7-deacetylpyripyropene A] was tested, and the pIC50 [1] was 7.00 to 8.00 and the “Specific activity: (inhibitory activity of test compound)/(inhibitory activity of pyripyropene A)” value (relative to pyripyropene A) was “++ (10 > specific activity > 5)”.
In the case of CC(=O)OCC1(C)C2C[C@H](OC(=O)c3ccccc3C)[C@@]3(C)Oc4cc(-c5cccnc5)oc(=O)c4[C@H](O)C3[C@@]2(C)CC[C@@H]1OC(C)=O (some centres unmarked) [PRD 007, 7-o-methylbenzoyl-7-deacetylpyripyropene A], the “Specific activity: (inhibitory activity of test compound)/(inhibitory activity of pyripyropene A)” value (relative to pyripyropene A) was “++++ (100 > specific activity > 50)”.
CC(=O)OCC1(C)C2C[C@H](OC(=O)c3cccc(C)c3)[C@@]3(C)Oc4cc(-c5cccnc5)oc(=O)c4[C@H](O)C3[C@@]2(C)CC[C@@H]1OC(C)=O (some centres unmarked) [PRD 008, 7-m-methylbenzoyl-7-deacetylpyripyropene A] was tested, and the “Specific activity: (inhibitory activity of test compound)/(inhibitory activity of pyripyropene A)” value (relative to pyripyropene A) was “+++ (50 > specific activity > 10)”.
In the case of CC(=O)OCC1(C)C(OC(C)=O)CCC2(C)C1CC(OC(=O)c1ccc(C)cc1)C1(C)Oc3cc(-c4cccnc4)oc(=O)c3C(O)C21 (centres unmarked) [PRD 009], the “Specific activity: (inhibitory activity of test compound)/(inhibitory activity of pyripyropene A)” value (relative to pyripyropene A) was “++++ (100 > specific activity > 50)”.
With CC(=O)OCC1(C)C2C[C@H](OC(=O)c3ccccc3Cl)[C@@]3(C)Oc4cc(-c5cccnc5)oc(=O)c4[C@H](O)C3[C@@]2(C)CC[C@@H]1OC(C)=O (some centres unmarked) [PRD 010, 7-o-chlorobenzoyl-7-deacetylpyripyropene A] the pIC50 [1] was 7.00 to 8.00 and the “Specific activity: (inhibitory activity of test compound)/(inhibitory activity of pyripyropene A)” value (relative to pyripyropene A) was “+++ (50 > specific activity > 10)”.
In the case of CC(=O)OCC1(C)C2C[C@H](OC(=O)c3cccc(Cl)c3)[C@@]3(C)Oc4cc(-c5cccnc5)oc(=O)c4[C@H](O)C3[C@@]2(C)CC[C@@H]1OC(C)=O (some centres unmarked) [PRD 011, 7-m-chlorobenzoyl-7-deacetylpyripyropene A], the pIC50 [1] was 7.00 to 8.00 and the “Specific activity: (inhibitory activity of test compound)/(inhibitory activity of pyripyropene A)” value (relative to pyripyropene A) was “+++ (50 > specific activity > 10)”.
In the case of CC(=O)OCC1(C)C2C[C@H](OC(=O)c3ccc(Cl)cc3)[C@@]3(C)Oc4cc(-c5cccnc5)oc(=O)c4[C@H](O)C3[C@@]2(C)CC[C@@H]1OC(C)=O (some centres unmarked) [PRD 012, 7-p-chlorobenzoyl-7-deacetylpyripyropene A], the pIC50 [1] was greater than 8.00 and the “Specific activity: (inhibitory activity of test compound)/(inhibitory activity of pyripyropene A)” value (relative to pyripyropene A) was “+++ (50 > specific activity > 10)”.
With C=Cc1cccc(C(=O)O[C@H]2CC3C(C)(COC(C)=O)[C@@H](OC(C)=O)CC[C@]3(C)C3[C@@H](O)c4c(cc(-c5cccnc5)oc4=O)O[C@@]32C)c1 (some centres unmarked) [PRD 013, 7-m-vinylbenzoyl-7-deacetylpyripyropene A] the pIC50 [1] was greater than 8.00 and the “Specific activity: (inhibitory activity of test compound)/(inhibitory activity of pyripyropene A)” value (relative to pyripyropene A) was “+++ (50 > specific activity > 10)”.
With C=Cc1ccc(C(=O)O[C@H]2CC3C(C)(COC(C)=O)[C@@H](OC(C)=O)CC[C@]3(C)C3[C@@H](O)c4c(cc(-c5cccnc5)oc4=O)O[C@@]32C)cc1 (some centres unmarked) [PRD 014, 7-p-vinylbenzoyl-7-deacetylpyripyropene A] the “Specific activity: (inhibitory activity of test compound)/(inhibitory activity of pyripyropene A)” value (relative to pyripyropene A) was “++ (10 > specific activity > 5)”.
CC(=O)OCC1(C)C2C[C@H](OC(=O)c3ccccc3C#N)[C@@]3(C)Oc4cc(-c5cccnc5)oc(=O)c4[C@H](O)C3[C@@]2(C)CC[C@@H]1OC(C)=O (some centres unmarked) [PRD 015, 7-o-cyanobenzoyl-7-deacetylpyripyropene A] was tested, and the pIC50 [1] was 6.00 to 7.00 and the “Specific activity: (inhibitory activity of test compound)/(inhibitory activity of pyripyropene A)” value (relative to pyripyropene A) was “+ (5 > specific activity > 1)”.
In the case of CC(=O)OCC1(C)C2C[C@H](OC(=O)c3cccc(C#N)c3)[C@@]3(C)Oc4cc(-c5cccnc5)oc(=O)c4[C@H](O)C3[C@@]2(C)CC[C@@H]1OC(C)=O (some centres unmarked) [PRD 016, 7-m-cyanobenzoyl-7-deacetylpyripyropene A], the pIC50 [1] was 7.00 to 8.00 and the “Specific activity: (inhibitory activity of test compound)/(inhibitory activity of pyripyropene A)” value (relative to pyripyropene A) was “+++ (50 > specific activity > 10)”.
In the case of CSc1ccc(C(=O)O[C@H]2CC3C(C)(COC(C)=O)[C@@H](OC(C)=O)CC[C@]3(C)C3[C@@H](O)c4c(cc(-c5cccnc5)oc4=O)O[C@@]32C)cc1 (some centres unmarked) [PRD 018, 7-p-methylthiobenzoyl-7-deacetylpyripyropene A], the pIC50 [1] was 7.00 to 8.00 and the “Specific activity: (inhibitory activity of test compound)/(inhibitory activity of pyripyropene A)” value (relative to pyripyropene A) was “+ (5 > specific activity > 1)”.
CC(=O)OCC1(C)C2C[C@H](OC(=O)c3ccc(Br)cc3)[C@@]3(C)Oc4cc(-c5cccnc5)oc(=O)c4[C@H](O)C3[C@@]2(C)CC[C@@H]1OC(C)=O (some centres unmarked) [PRD 019, 7-p-bromobenzoyl-7-deacetylpyripyropene A] was tested, and the “Specific activity: (inhibitory activity of test compound)/(inhibitory activity of pyripyropene A)” value (relative to pyripyropene A) was “+++ (50 > specific activity > 10)”.
For CC(=O)OCC1(C)C2C[C@H](OC(=O)c3ccc(F)cc3)[C@@]3(C)Oc4cc(-c5cccnc5)oc(=O)c4[C@H](O)C3[C@@]2(C)CC[C@@H]1OC(C)=O (some centres unmarked) [PRD 020, 7-p-fluorobenzoyl-7-deacetylpyripyropene A], the pIC50 [1] was greater than 8.00 and the “Specific activity: (inhibitory activity of test compound)/(inhibitory activity of pyripyropene A)” value (relative to pyripyropene A) was “+++ (50 > specific activity > 10)”.
With CC(=O)OCC1(C)C2C[C@H](OC(=O)C3CCCCC3)[C@@]3(C)Oc4cc(-c5cccnc5)oc(=O)c4[C@H](O)C3[C@@]2(C)CC[C@@H]1OC(C)=O (some centres unmarked) [PRD 021, 7-cyclohexanecarboxyl-7-deacetylpyripyropene A] the pIC50 was greater than 8.00 and the “Specific activity: (inhibitory activity of test compound)/(inhibitory activity of pyripyropene A)” value (relative to pyripyropene A) was “++++ (100 > specific activity > 50)”.
With CC(=O)OCC1(C)C2C[C@H](OC(=O)C34CC5CC(CC(C5)C3)C4)[C@@]3(C)Oc4cc(-c5cccnc5)oc(=O)c4[C@H](O)C3[C@@]2(C)CC[C@@H]1OC(C)=O (some centres unmarked) [PRD 022, 7-1-adamantanecarboxyl-7-deacetylpyripyropene A] the pIC50 [1] was greater than 8.00 and the “Specific activity: (inhibitory activity of test compound)/(inhibitory activity of pyripyropene A)” value (relative to pyripyropene A) was “+++ (50 > specific activity > 10)”.
For CSc1cccc(C(=O)O[C@H]2CC3C(C)(COC(C)=O)[C@@H](OC(C)=O)CC[C@]3(C)C3[C@@H](O)c4c(cc(-c5cccnc5)oc4=O)O[C@@]32C)c1 (some centres unmarked) [PRD 023, 7-m-methylthiobenzoyl-7-deacetylpyripyropene A], the pIC50 [1] was 7.00 to 8.00 and the “Specific activity: (inhibitory activity of test compound)/(inhibitory activity of pyripyropene A)” value (relative to pyripyropene A) was “+++ (50 > specific activity > 10)”.
In the case of CC(=O)OCC1(C)C2C[C@H](OC(=O)c3cccc(F)c3)[C@@]3(C)Oc4cc(-c5cccnc5)oc(=O)c4[C@H](O)C3[C@@]2(C)CC[C@@H]1OC(C)=O (some centres unmarked) [PRD 024, 7-m-fluorobenzoyl-7-deacetylpyripyropene A], the pIC50 [1] was greater than 8.00, the “Specific activity relative to pyripyropene A (numeric)” value (relative to pyripyropene A) was no less than 100 and the “Specific activity: (inhibitory activity of test compound)/(inhibitory activity of pyripyropene A)” value (relative to pyripyropene A) was “+++++ (specific activity > 100)”.
For CCc1ccc(C(=O)O[C@H]2CC3C(C)(COC(C)=O)[C@@H](OC(C)=O)CC[C@]3(C)C3[C@@H](O)c4c(cc(-c5cccnc5)oc4=O)O[C@@]32C)cc1 (some centres unmarked) [PRD 025, 7-p-ethylbenzoyl-7-deacetylpyripyropene A], the “Specific activity: (inhibitory activity of test compound)/(inhibitory activity of pyripyropene A)” value (relative to pyripyropene A) was “++++ (100 > specific activity > 50)”.
